The values that follow come from patent US12358885B2, “Substituted n-propylamine fused heterocyclic mescaline derivatives” (Enveric Biosciences Canada Inc., priority 2022, dated 2025).

As a reminder, the Ki is the dissociation constant of the complex between target and ligand, obtained from inhibition or displacement. The low end stands for tighter binding, the high end for weaker binding. Usually EC50 stands for the concentration needed to bring the measured effect to its halfway point.

Where two headings read alike, the source gives them in different places.

In assay [1] the target is T1, 5-HT1A receptor (Homo sapiens, UniProt P08908).
T1 construct: purchased Perkin Elmer 6110501400UA
T1 sequence (P08908 1-422): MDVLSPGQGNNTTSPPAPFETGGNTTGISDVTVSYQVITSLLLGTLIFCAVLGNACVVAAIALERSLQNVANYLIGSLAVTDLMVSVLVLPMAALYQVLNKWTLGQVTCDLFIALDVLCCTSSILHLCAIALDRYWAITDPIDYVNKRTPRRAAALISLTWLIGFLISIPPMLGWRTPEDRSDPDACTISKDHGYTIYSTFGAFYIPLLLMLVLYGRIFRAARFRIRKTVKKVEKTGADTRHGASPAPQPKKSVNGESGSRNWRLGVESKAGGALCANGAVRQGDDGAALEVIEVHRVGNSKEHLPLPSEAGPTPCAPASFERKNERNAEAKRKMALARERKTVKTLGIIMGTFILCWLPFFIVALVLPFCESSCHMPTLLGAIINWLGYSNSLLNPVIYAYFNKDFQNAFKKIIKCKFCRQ
Kind of assay: 5-HT1A receptor radioligand competition assay (SPA, 8-hydroxy-DPAT [3H]). The assay is classed as binding. To be noted: 0.5 nM hot 8-hydroxy-DPAT, membranes containing 5-HT1A.

The target in assay [2] is T2, 5-HT2A receptor (Homo sapiens, UniProt P28223).
T2 construct: host or cells: HEK-293 cells (membrane preparation)
T2 sequence (P28223 whole entry): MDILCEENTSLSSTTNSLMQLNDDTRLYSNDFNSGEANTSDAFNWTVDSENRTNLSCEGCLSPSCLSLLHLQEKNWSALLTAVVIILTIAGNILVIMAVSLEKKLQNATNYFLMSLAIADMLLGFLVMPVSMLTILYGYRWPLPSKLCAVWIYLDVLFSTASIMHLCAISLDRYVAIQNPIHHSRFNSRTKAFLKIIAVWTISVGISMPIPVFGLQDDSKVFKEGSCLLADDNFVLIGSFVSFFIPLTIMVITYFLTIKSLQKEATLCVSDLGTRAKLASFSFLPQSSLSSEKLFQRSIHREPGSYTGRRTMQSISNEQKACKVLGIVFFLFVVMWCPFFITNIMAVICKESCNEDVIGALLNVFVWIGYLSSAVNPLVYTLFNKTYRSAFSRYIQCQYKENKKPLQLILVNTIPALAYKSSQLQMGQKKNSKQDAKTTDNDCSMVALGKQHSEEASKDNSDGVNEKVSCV
Kind of assay: biochemical. The assay is classed as binding.

Assay [3] deals with T1, 5-HT1A receptor. Description: Functional 5-HT1A receptor cAMP assay in CHO-K1/5-HT1A/Gα15 cells. The assay is classed as cell-based. For orientation: Cyclic AMP is a second messenger, typically raised through Gs and lowered through Gi signalling.
The target in assay [4] is T1, 5-HT1A receptor. Description: Eurofins Cerep competition binding assay at 5-HT1A receptor. The conditions noted are these: 10 μM test ligand, [3H]8-OH-DPAT, recombinant receptor in HEK-293 cells; for inhibition at 10 µM: read-out: HT1A, percent of control-specific binding.
In assay [5] the target is T2, 5-HT2A receptor. Kind of assay: biochemical. The assay is classed as binding. The conditions noted are these: for inhibition at 10 µM: read-out: HT2A, percent of control-specific binding.
For assay [6], the target named is T3, 5-HT2B receptor (Homo sapiens, UniProt P41595).
T3 construct: host or cells: CHO cells (membrane preparation)
T3 sequence (P41595 whole entry): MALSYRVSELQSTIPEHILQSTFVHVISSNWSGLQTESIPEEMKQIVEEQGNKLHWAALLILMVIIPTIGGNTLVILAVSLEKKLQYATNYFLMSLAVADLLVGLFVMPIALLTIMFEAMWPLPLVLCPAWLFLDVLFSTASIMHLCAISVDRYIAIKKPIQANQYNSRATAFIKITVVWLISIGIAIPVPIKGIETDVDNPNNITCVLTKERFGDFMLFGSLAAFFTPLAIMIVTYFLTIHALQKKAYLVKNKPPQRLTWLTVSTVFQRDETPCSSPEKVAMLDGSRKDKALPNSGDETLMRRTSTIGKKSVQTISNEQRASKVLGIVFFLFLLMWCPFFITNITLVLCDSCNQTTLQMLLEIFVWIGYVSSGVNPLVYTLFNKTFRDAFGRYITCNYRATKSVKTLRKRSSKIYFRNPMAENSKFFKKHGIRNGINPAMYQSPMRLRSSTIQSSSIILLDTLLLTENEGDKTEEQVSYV
Description: Eurofins Cerep competition binding assay at 5-HT2B receptor. To be noted: 10 μM test ligand, [3H]mesulergine, recombinant receptor in CHO cells; for inhibition at 10 µM: read-out: HT2B, percent of control-specific binding.

The target of assay [7] is T4, 5-HT7 receptor (Homo sapiens, UniProt P34969).
T4 construct: host or cells: HEK-293 cells (membrane preparation)
T4 sequence (P34969 whole entry): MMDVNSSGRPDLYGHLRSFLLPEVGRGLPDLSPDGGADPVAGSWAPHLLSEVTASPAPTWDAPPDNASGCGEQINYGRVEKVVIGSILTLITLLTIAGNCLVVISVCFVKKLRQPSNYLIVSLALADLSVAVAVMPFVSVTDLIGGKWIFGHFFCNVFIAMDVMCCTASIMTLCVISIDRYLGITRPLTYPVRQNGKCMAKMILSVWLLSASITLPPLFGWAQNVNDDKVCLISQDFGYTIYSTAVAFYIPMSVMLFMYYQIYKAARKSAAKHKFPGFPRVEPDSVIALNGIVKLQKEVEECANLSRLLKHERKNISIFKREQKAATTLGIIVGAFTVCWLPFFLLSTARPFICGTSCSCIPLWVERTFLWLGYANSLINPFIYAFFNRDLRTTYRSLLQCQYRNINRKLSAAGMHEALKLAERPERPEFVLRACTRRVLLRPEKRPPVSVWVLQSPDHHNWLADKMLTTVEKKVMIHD
Kind of assay: Eurofins Cerep competition binding assay at 5-HT7 receptor. The conditions noted are these: 10 μM test ligand, [3H]LSD, recombinant receptor in HEK-293 cells; for inhibition at 10 µM: read-out: HT7, percent of control-specific binding.

In assay [8] the target is T5, alpha2A receptor (Homo sapiens, UniProt P08913).
T5 construct: host or cells: CHO cells (membrane preparation)
T5 sequence (P08913 1-465): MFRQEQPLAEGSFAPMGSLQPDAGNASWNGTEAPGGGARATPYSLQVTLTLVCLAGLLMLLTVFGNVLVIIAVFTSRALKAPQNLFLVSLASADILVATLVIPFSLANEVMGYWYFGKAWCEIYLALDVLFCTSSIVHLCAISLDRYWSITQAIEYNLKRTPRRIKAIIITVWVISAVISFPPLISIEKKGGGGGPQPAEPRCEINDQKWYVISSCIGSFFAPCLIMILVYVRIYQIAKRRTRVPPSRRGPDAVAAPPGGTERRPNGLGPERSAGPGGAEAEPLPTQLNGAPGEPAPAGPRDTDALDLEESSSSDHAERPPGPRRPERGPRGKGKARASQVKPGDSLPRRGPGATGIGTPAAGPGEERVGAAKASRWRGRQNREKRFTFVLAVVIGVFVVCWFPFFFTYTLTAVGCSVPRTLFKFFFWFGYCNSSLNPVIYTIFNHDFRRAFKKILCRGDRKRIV
Description: Eurofins Cerep competition binding assay at alpha2A receptor. The conditions noted are these: 10 μM test ligand; [3H]RX 821002; recombinant receptor in CHO cells.

Assay [9] concerns the target T6, D3 receptor (Homo sapiens, UniProt P35462).
T6 construct: host or cells: CHO cells (membrane preparation)
Description: Eurofins Cerep competition binding assay at D3 receptor. The conditions noted are these: 10 μM test ligand, [3H]methylspiperone, recombinant receptor in CHO cells; for inhibition at 10 µM: read-out: D3, percent of control-specific binding.

Assay [10] has as its target T7, serotonin transporter (SERT) (Homo sapiens, UniProt P31645).
T7 construct: host or cells: CHO cells (membrane preparation)
Kind of assay: biochemical. The format is binding. To be noted: for SERT, percent of control-specific binding: 10 µM; for inhibition at 10 µM: read-out: SERT, percent of control-specific binding.

Assay [11] has as its target T8, dopamine transporter (DAT) (Homo sapiens, UniProt Q01959).
T8 construct: host or cells: CHO cells (membrane preparation)
Kind of assay: Eurofins Cerep competition binding assay at dopamine transporter. To be noted: for DAT, percent of control-specific binding: 10 μM test ligand, [3H]BTCP, recombinant transporter in CHO cells; for inhibition at 10 µM: read-out: DAT, percent of control-specific binding.

Assay [12] has as its target T9, MT1 receptor (Homo sapiens, UniProt P48039).
T9 construct: host or cells: CHO cells (membrane preparation)
Kind of assay: Eurofins Cerep competition binding assay at MT1 receptor. To be noted: for MT1, percent of control-specific binding: 10 μM test ligand, [125I]2-iodomelatonin, recombinant receptor in CHO cells; for inhibition at 10 µM: read-out: MT1, percent of control-specific binding.

The target in assay [13] is T10, norepinephrine transporter (NET) (Homo sapiens, UniProt P23975).
T10 construct: host or cells: CHO cells (membrane preparation)
T10 sequence (P23975 whole entry): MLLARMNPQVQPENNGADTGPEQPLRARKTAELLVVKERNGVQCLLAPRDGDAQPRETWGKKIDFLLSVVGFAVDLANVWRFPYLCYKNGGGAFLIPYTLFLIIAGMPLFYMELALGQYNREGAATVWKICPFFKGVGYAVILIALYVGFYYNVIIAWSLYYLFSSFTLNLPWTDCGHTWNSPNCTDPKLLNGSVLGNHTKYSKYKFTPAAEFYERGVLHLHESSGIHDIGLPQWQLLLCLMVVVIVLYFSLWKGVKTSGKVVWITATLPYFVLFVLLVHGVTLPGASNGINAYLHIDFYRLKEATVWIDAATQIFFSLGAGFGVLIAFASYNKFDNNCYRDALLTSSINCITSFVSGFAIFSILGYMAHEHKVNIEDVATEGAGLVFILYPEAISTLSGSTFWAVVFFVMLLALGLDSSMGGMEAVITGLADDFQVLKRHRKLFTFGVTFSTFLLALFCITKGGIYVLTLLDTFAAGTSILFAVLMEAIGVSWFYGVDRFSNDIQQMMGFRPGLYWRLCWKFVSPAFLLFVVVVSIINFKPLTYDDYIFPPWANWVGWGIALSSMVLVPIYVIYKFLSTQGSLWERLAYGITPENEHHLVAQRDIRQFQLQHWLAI
Description: Eurofins Cerep competition binding assay at norepinephrine transporter. To be noted: for NET, percent of control-specific binding: 10 μM test ligand, [3H]nisoxetine, recombinant transporter in CHO cells; for inhibition at 10 µM: read-out: NET, percent of control-specific binding.

The target in assay [14] is T11, 5-HT2C receptor (Homo sapiens, UniProt P28335).
T11 construct: host or cells: HEK-293 cells (membrane preparation)
T11 sequence (P28335 33-458): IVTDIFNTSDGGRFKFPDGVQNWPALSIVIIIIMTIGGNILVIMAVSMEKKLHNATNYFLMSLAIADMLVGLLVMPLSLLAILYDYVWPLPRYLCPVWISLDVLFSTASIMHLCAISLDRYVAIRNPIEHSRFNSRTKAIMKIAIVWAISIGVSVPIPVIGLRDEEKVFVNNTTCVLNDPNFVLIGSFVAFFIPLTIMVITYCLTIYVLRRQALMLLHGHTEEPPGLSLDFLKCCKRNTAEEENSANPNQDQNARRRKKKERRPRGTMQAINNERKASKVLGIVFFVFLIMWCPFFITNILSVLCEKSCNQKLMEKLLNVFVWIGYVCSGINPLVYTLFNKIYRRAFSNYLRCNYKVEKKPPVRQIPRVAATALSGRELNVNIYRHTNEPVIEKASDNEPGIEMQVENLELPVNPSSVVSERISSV
Description: Eurofins Cerep competition binding assay at 5-HT2C receptor. To be noted: 10 μM test ligand, [125I](±)DOI, recombinant receptor in HEK-293 cells; for inhibition at 10 µM: read-out: HT2C, percent of control-specific binding.

Where [15] appears, read: 1 nM [3H]ketanserin, membranes containing 5-HT2A, SPA.
Where [16] appears, read: reduction of cAMP in cells stimulated with 4 μM forskolin, CHO-K1/5-HT1A/Gα15, read-out: 5-HT1A, EC50.
The mark [17] stands for this setting: 10 μM test molecule, [125I](±)DOI, recombinant receptor in HEK-293 cells.

T6 sequence (P35462 whole entry): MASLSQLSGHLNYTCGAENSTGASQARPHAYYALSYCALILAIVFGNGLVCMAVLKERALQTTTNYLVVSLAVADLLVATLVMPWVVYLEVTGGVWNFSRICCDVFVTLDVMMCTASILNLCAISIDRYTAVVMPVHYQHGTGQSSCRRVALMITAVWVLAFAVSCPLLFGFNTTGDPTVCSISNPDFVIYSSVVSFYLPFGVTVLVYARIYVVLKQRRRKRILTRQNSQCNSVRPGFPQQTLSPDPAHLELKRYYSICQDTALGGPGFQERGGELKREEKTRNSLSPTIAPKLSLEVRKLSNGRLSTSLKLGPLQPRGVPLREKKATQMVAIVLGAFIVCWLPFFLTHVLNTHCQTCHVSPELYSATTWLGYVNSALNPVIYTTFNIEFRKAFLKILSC
T8 sequence (Q01959 whole entry): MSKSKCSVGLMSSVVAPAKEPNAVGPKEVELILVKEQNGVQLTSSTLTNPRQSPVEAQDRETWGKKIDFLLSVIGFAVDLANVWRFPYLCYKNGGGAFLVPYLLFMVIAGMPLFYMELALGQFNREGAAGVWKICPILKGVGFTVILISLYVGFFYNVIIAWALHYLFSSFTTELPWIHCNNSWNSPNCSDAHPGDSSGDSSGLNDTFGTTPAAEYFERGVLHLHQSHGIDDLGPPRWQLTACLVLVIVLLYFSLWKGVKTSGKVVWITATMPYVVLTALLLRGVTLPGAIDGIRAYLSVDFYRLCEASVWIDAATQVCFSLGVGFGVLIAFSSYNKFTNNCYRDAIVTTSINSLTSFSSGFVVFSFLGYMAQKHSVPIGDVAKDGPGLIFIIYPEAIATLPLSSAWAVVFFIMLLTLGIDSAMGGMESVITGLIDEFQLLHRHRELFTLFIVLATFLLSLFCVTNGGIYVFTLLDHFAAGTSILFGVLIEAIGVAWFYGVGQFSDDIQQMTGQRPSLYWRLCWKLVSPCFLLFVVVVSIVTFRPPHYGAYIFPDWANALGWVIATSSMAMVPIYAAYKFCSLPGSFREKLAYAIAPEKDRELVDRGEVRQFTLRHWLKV
T7 sequence (P31645 whole entry): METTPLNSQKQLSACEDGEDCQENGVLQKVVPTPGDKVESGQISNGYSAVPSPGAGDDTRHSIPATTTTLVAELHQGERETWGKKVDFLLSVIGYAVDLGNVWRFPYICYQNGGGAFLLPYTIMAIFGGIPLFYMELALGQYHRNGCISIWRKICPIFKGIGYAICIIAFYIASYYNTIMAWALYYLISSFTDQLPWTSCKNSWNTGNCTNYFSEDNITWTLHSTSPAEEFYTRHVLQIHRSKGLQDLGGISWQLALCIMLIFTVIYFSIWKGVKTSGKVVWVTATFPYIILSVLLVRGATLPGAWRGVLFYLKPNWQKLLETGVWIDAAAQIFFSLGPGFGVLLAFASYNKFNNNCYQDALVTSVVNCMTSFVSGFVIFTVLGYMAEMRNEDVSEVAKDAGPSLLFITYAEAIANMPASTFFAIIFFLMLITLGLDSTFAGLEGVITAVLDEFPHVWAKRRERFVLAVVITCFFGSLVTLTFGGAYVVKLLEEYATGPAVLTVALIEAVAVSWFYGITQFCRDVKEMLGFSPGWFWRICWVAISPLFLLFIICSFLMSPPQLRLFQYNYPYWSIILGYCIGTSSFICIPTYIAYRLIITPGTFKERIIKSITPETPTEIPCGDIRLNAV
T9 sequence (P48039 whole entry): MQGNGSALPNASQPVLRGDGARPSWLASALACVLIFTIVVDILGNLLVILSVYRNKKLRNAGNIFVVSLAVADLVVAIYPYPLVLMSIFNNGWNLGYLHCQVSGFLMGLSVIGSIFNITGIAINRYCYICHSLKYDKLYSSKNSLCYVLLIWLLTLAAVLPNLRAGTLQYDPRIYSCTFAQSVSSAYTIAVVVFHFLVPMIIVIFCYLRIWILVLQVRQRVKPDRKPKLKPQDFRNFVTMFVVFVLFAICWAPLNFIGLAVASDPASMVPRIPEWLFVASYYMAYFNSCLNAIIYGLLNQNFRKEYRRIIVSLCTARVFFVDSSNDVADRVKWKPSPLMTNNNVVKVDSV

Consider `COc1cc(CCN)c(OC)cc1Br` [2C-B, reference compound], for which the Ki in assay [1] amounted to 0.2 µM; in [2] (setting [15]), 0.414 µM. The EC50 in assay [3] (setting [16]) stood at 5.95 µM. Also, in assay [4], the “HT1A, percent of control-specific binding” value (from here on “HT1A, percent”) came to 96%. In addition, the “HT2A, percent of control-specific binding” value (from here on “HT2A, percent”) in assay [5] (setting [17]) is 98%. The “HT2B, percent of control-specific binding” value (from here on “HT2B, percent”) in [6] came to 99%. For the same compound, the “HT7, percent of control-specific binding” value in assay [7] was 88%. Besides, the “α-2A, percent of control-specific binding” value (from here on “α-2A, percent”) in assay [8] was 88%. Further, in assay [9], the “D3, percent of control-specific binding” value is recorded as 43%. Further, the “SERT, percent of control-specific binding” value (shortened to “SERT, percent”) in assay [10] was determined as 42%. Besides, in assay [11], the “DAT, percent of control-specific binding” value came out at 5%. For the same compound, the “MT1, percent of control-specific binding” value in [12] is given as 86%. In addition, in assay [13], the “NET, percent of control-specific binding” value turned out to be 13%.
Regarding `C/C(=C\c1ccc2c(c1)OCO2)CN1CCCC1` [B(II)], the Ki in assay [1] came out at 824 µM; in [2] (setting [15]), 7 µM. This compound also came in with an EC50 in [3] of 40.1 µM. Besides, the inhibition at 10 µM stood at 79% in assay [4]; 53% in assay [5] (setting [17]); 87% in assay [6]; 45% in [14]; 68% in assay [7]; 55% in [9]. Further, the inhibition at 10 µM in assay [10] came to 95%; in [11], 69%; in assay [12], 20%; in assay [13] it was 43%. The “α-2A, percent” value in assay [8] turned out to be 75%.
With `CCN(CC)C/C=C/c1ccc2c(c1)OCO2` [D(I)], in assay [2] (setting [15]), the Ki came out at 21 µM. This compound returned an EC50 in [3] of over 1000 µM. Further, the inhibition at 10 µM in assay [4] is 49%; in assay [5] (setting [17]), 32%; in assay [6], 58%; in assay [14], 33%; in assay [7] it was 18%; in assay [9], 21%. Further, the inhibition at 10 µM in assay [10] was determined as 70%; in assay [11], 39%; in [12] it was 10%; in [13] it was 17%. For the same compound, the “α-2A, percent” value in assay [8] is on record as 34%.
On to `O=C(CCc1ccc2c(c1)OCO2)N1CCCC1` [F(III)], for which the Ki in [1] was over 1000 µM; in assay [2] (setting [15]) it was 152 µM. The inhibition at 10 µM in assay [4] was 0%; in [5] (setting [17]) it was 0%; in assay [6], 13%; in [14], 5%; in assay [7], 2%; in assay [9], 0%. The inhibition at 10 µM in assay [10] was found to be 0%; in assay [11], 0%; in [12], 12%; in assay [13] it was 0%. Moreover, in [8], the “α-2A, percent” value is recorded as 5%.
As to `CNC(C)Cc1ccc2c(c1)OCO2` (centres unmarked) [MDMA, reference compound], the Ki was 11 µM in assay [1] and 39.9 µM in assay [2]. Moreover, in assay [3] (setting [16]), the concentration giving a half-maximal response (EC50) was over 1000 µM. Further, the “HT1A, percent” value in assay [4] was found to be 68%. For the same compound, the “HT2A, percent” value in assay [5] (10 µM) came out at 74%. Besides, the “HT2B, percent” value in assay [6] was found to be 85%. Also, the “HT2C, percent of control-specific binding” value in assay [14] is on record as 96%. The “HT7, percent of control-specific binding” value in [7] is listed as 58%. Moreover, the “α-2A, percent” value in assay [8] amounted to 27%. The “D3, percent of control-specific binding” value in assay [9] turned out to be 18%. The “SERT, percent” value in assay [10] amounted to 46%. Further, in assay [11], the “DAT, percent of control-specific binding” value came to 28%. Further, in [12], the “MT1, percent of control-specific binding” value was 1%. In addition, the “NET, percent of control-specific binding” value in [13] was 3%.
As for `CCOc1c(OC)cc(CCN)cc1OC` [escaline], the Ki in [1] turned out to be 12.4 µM; in assay [2] (setting [15]), 61 µM. Moreover, the “HT1A, percent” value in assay [4] was 44%. The “HT2A, percent” value in assay [5] (setting [17]) is listed as 84%. Besides, in assay [6], the “HT2B, percent” value was determined as 81%. The “HT2C, percent of control-specific binding” value in assay [14] turned out to be 95%. The “HT7, percent of control-specific binding” value in [7] turned out to be 16%. The “α-2A, percent” value in assay [8] turned out to be 45%. In addition, the “D3, percent of control-specific binding” value in assay [9] amounted to 0%. Moreover, the “SERT, percent” value in [10] is 0%. In addition, the “DAT, percent of control-specific binding” value in assay [11] stood at 0%. In addition, in assay [12], the “MT1, percent of control-specific binding” value was 0%. Besides, the “NET, percent of control-specific binding” value in assay [13] was determined as 6%.
